Common to all, as to format: cell-based
For assay [1], the system named is Escherichia coli. Briefly: Minimum Inhibitory Concentration (MIC) test, two fold serial dilutions. Further details: unit not given here. As to conditions: Minimal Salts Media (M9G). Here is the method:
(§1) The spectrum of antimicrobial activity of the antimicrobial agents useful in the present invention were determined in Minimum Inhibitory Concentration (MIC) tests. MICs were determined by two fold serial dilutions of a compound in Minimal Salts Media (M9G), Trypticase Soy Broth (TSB) or Tryticase Soy Broth and anionic surfactant (TSBA). The compounds were tested against Aspergillus niger, Rhodotorula rubra, Escherichia coli and Pseudomonas aeruginosa. Results of the MIC tests are shown below.

Assay [2] has as its system Rhodotorula rubra. Described as above. Further details: R. Rubra M9G: unit not given here. Particulars: for R. Rubra M9G: Minimal Salts Media (M9G). The procedure:
as §1

The subject of assay [3] is Aspergillus niger. The assay is described as above. Particulars: Trypticase Soy Broth (TSB). Here is the method:
as §1

For assay [4], the system named is Aspergillus niger, Rhodotorula rubra, Escherichia coli and Pseudomonas aeruginosa. Description: MIC tests, overall spectrum of antimicrobial activity. Particulars: verbal summary of the MIC results of Table 1. Here is the method:
as §1

SMILES strings stand for the structures.

Turning to `O=C(Nc1c(Br)cc(Br)cc1Br)c1sc(C(F)(F)F)nc1C(F)(F)F` [Compound 26], in assay [1], the “E.Coli M9G” value is reported as greater than 300. Further, the “R. Rubra M9G” value in assay [2] is 300.

Regarding `O=C(Nc1c(Br)cc(OC(F)(F)F)cc1Br)c1sc(C(F)(F)F)nc1C(F)(F)F` [Compound 29], the “E.Coli M9G” value in assay [1] is on record as greater than 300. In addition, in assay [2], the “R. Rubra M9G” value is recorded as 300.

Regarding `Cc1nc(C(F)(F)F)c(C(=O)Nc2c(Cl)cc(OC(F)(F)F)cc2Cl)s1` [Compound 33], the “E.Coli M9G” value in assay [1] is 300. Also, in assay [2], the “R. Rubra M9G” value worked out at 300.

Turning to `Cc1nc(C(F)F)c(C(=O)Nc2c(Br)cc(Br)cc2Br)s1` [Compound 34], the “E.Coli M9G” value in assay [1] is recorded as 300. Also, in assay [2], the “R. Rubra M9G” value was 300.

Regarding `Cc1nc(C(F)F)c(C(=O)Nc2c(Br)cc(OC(F)(F)F)cc2Br)s1` [Compound 35], the “E.Coli M9G” value in assay [1] is on record as 300. Moreover, the “R. Rubra M9G” value in assay [2] came to 300.

On to `O=C(Nc1ccc(F)c(F)c1)c1sc(C(Cl)(Cl)Cl)nc1C(F)(F)F` [Compound 43], for which, in assay [1], the “E.Coli M9G” value is recorded as greater than 300. Further, in assay [3], the “A. niger TSB” value is listed as greater than 30. Further, the “R. Rubra M9G” value in assay [2] is on record as 30. Also, in assay [2] (Trypticase Soy Broth (TSB)), the “R. Rubra TSB” value was determined as 30. Besides, the microbicidal activity entry in assay [4] was “surprisingly effective at controlling microorganisms”.

These data come from patent EP1110454A2, “5-Carboxanilido-haloalkylthiazoles as antimicrobial and marine antifouling agents” (ROHM AND HAAS COMPANY, priority 1999, dated 2001).
